In US20140093884A1, “Process for Identifying Novel Anti-Inflammatory Molecules with Reduced Direct Transrepression of Genes Induced by Glucocorticoids” (UNIVERSITE DE STRASBOURG, priority 2011, published 2014):

Assays:
Type in all cases: in vivo, mouse
Set-up in all cases: key: ♦: not repressed
[1] = system: IR0, IR1 and IR2 nGRE containing genes; assay: Q-RT-PCR of IR nGRE-containing genes in epidermis of 18 hr-Dex-treated WT mice
From the text: (§1) Real time PCR. Total RNA was reverse transcribed using hexamers, followed by Q-PCR, as reported (Li et al., 2005).
(§2) A comparison of mouse and human orthologues indicated conservations of such IR elements (51 IR0, 379 IR1 and 566 IR2). Within these orthologue gene families, 35 IR0, 50 IR1 and 50 IR2 nGRE-containing mouse genes (Table 4) were randomly chosen to investigate whether (i) they were expressed in epidermis, intestinal epithelium and liver, (ii) their expression was inhibited by the GC agonist Dexamethasone (Dex), (iii) this inhibition could be relieved by RU486 co-administration, and also if it could be correlated with GR and corepressor binding to their putative IR nGREs.

[2] = system: IR0, IR1 and IR2 nGRE containing genes; assay: Q-RT-PCR of IR nGRE-containing genes in intestinal epithelium of 18 hr-Dex-treated WT mice
From the text: as §1, §2

[3] = system: IR0, IR1 and IR2 nGRE containing genes; assay: Q-RT-PCR of IR nGRE-containing genes in liver of 18 hr-Dex-treated WT mice
From the text: as §1, §2

C[C@@H]1C[C@H]2[C@@H]3CCC4=CC(=O)C=C[C@]4(C)[C@@]3(F)[C@@H](O)C[C@]2(C)[C@@]1(O)C(=O)CO [Dex, dexamethasone]
♦: AIP transcript level, not repressed ([1]; IR0 nGRE gene) | DDI1 transcript level, not repressed ([1]; IR0 nGRE gene) | DLAT transcript level, not repressed ([1]; IR0 nGRE gene) | FBXL18 transcript level, not repressed ([1]; IR0 nGRE gene) | FSD2 transcript level, not repressed ([1]; IR0 nGRE gene) | GPIHBP1 transcript level, not repressed ([1]; IR0 nGRE gene) | HCST transcript level, not repressed ([1]; IR0 nGRE gene) | KLF5 transcript level, not repressed ([1]; IR0 nGRE gene) | LAG3 transcript level, not repressed ([1]; IR0 nGRE gene) | MTG1 transcript level, not repressed ([1]; IR0 nGRE gene) | NEU1 transcript level, not repressed ([1]; IR0 nGRE gene) | PTMS transcript level, not repressed ([1]; IR0 nGRE gene) | SLC25A5 transcript level, not repressed ([1]; IR0 nGRE gene) | TCF25 transcript level, not repressed ([1]; IR0 nGRE gene) | TRPM7 transcript level, not repressed ([1]; IR0 nGRE gene) | ZBED4 transcript level, not repressed ([1]; IR0 nGRE gene) | ZFP113 transcript level, not repressed ([1]; IR0 nGRE gene) | ZFP467 transcript level, not repressed ([1]; IR0 nGRE gene) | ZFP784 transcript level, not repressed ([1]; IR0 nGRE gene) | AGPAT2 transcript level, not repressed ([1]; IR1 nGRE gene) | AKAP6 transcript level, not repressed ([1]; IR1 nGRE gene) | ARHGAP23 transcript level, not repressed ([1]; IR1 nGRE gene) | ATN1 transcript level, not repressed ([1]; IR1 nGRE gene) | B4GALT2 transcript level, not repressed ([1]; IR1 nGRE gene) | BCL2L1 transcript level, not repressed ([1]; IR1 nGRE gene) | BEST2 transcript level, not repressed ([1]; IR1 nGRE gene) | BMP3 transcript level, not repressed ([1]; IR1 nGRE gene) | CACNA2D3 transcript level, not repressed ([1]; IR1 nGRE gene) | CADM4 transcript level, not repressed ([1]; IR1 nGRE gene) | CDK9 transcript level, not repressed ([1]; IR1 nGRE gene) | CTSA transcript level, not repressed ([1]; IR1 nGRE gene) | DYNLT3 transcript level, not repressed ([1]; IR1 nGRE gene) | GNG10 transcript level, not repressed ([1]; IR1 nGRE gene) | GPR108 transcript level, not repressed ([1]; IR1 nGRE gene) | GPR153 transcript level, not repressed ([1]; IR1 nGRE gene) | JUND transcript level, not repressed ([1]; IR1 nGRE gene) | KLC3 transcript level, not repressed ([1]; IR1 nGRE gene) | LRRC transcript level, not repressed ([1]; IR1 nGRE gene) | MT2 transcript level, not repressed ([1]; IR1 nGRE gene) | MTHFR transcript level, not repressed ([1]; IR1 nGRE gene) | MXI1 transcript level, not repressed ([1]; IR1 nGRE gene) | NKRF transcript level, not repressed ([1]; IR1 nGRE gene) | SCP2 transcript level, not repressed ([1]; IR1 nGRE gene) | SREPF1 transcript level, not repressed ([1]; IR1 nGRE gene) | SSTR4 transcript level, not repressed ([1]; IR1 nGRE gene) | STAB1 transcript level, not repressed ([1]; IR1 nGRE gene) | USF1 transcript level, not repressed ([1]; IR1 nGRE gene) | COL4A3BP transcript level, not repressed ([1]; IR2 nGRE gene) | ELMOD3 transcript level, not repressed ([1]; IR2 nGRE gene) | FKBP2 transcript level, not repressed ([1]; IR2 nGRE gene) | FOXQ1 transcript level, not repressed ([1]; IR2 nGRE gene) | GGT1 transcript level, not repressed ([1]; IR2 nGRE gene) | GIT2 transcript level, not repressed ([1]; IR2 nGRE gene) | GLU1 transcript level, not repressed ([1]; IR2 nGRE gene) | GOT1 transcript level, not repressed ([1]; IR2 nGRE gene) | GPR97 transcript level, not repressed ([1]; IR2 nGRE gene) | GRASP transcript level, not repressed ([1]; IR2 nGRE gene) | HSPB2 transcript level, not repressed ([1]; IR2 nGRE gene) | POMGNT1 transcript level, not repressed ([1]; IR2 nGRE gene) | PRKRA transcript level, not repressed ([1]; IR2 nGRE gene) | RORA transcript level, not repressed ([1]; IR2 nGRE gene) | SLC2A8 transcript level, not repressed ([1]; IR2 nGRE gene) | TGM6 transcript level, not repressed ([1]; IR2 nGRE gene) | AIP transcript level, not repressed ([2]; IR0 nGRE gene) | ANO4 transcript level, not repressed ([2]; IR0 nGRE gene) | CITED1 transcript level, not repressed ([2]; IR0 nGRE gene) | DLAT transcript level, not repressed ([2]; IR0 nGRE gene) | FBXL18 transcript level, not repressed ([2]; IR0 nGRE gene) | GPIHBP1 transcript level, not repressed ([2]; IR0 nGRE gene) | KLF5 transcript level, not repressed ([2]; IR0 nGRE gene) | LAG3 transcript level, not repressed ([2]; IR0 nGRE gene) | MAPK4 transcript level, not repressed ([2]; IR0 nGRE gene) | MTG1 transcript level, not repressed ([2]; IR0 nGRE gene) | NDUFA4L2 transcript level, not repressed ([2]; IR0 nGRE gene) | NEU1 transcript level, not repressed ([2]; IR0 nGRE gene) | PPIL5 transcript level, not repressed ([2]; IR0 nGRE gene) | PTMS transcript level, not repressed ([2]; IR0 nGRE gene) | SLC25A5 transcript level, not repressed ([2]; IR0 nGRE gene) | SP9 transcript level, not repressed ([2]; IR0 nGRE gene) | SPARC transcript level, not repressed ([2]; IR0 nGRE gene) | TCF25 transcript level, not repressed ([2]; IR0 nGRE gene) | TRPM7 transcript level, not repressed ([2]; IR0 nGRE gene) | ZBED4 transcript level, not repressed ([2]; IR0 nGRE gene) | ZFP113 transcript level, not repressed ([2]; IR0 nGRE gene) | ZFP467 transcript level, not repressed ([2]; IR0 nGRE gene) | ZFP784 transcript level, not repressed ([2]; IR0 nGRE gene) | ADRA2A transcript level, not repressed ([2]; IR1 nGRE gene) | AGPAT2 transcript level, not repressed ([2]; IR1 nGRE gene) | ATN1 transcript level, not repressed ([2]; IR1 nGRE gene) | BCL2L1 transcript level, not repressed ([2]; IR1 nGRE gene) | BMP3 transcript level, not repressed ([2]; IR1 nGRE gene) | CADM4 transcript level, not repressed ([2]; IR1 nGRE gene) | CDH11 transcript level, not repressed ([2]; IR1 nGRE gene) | CDK9 transcript level, not repressed ([2]; IR1 nGRE gene) | CTSA transcript level, not repressed ([2]; IR1 nGRE gene) | DYNLT3 transcript level, not repressed ([2]; IR1 nGRE gene) | GPR108 transcript level, not repressed ([2]; IR1 nGRE gene) | GPR153 transcript level, not repressed ([2]; IR1 nGRE gene) | KLC3 transcript level, not repressed ([2]; IR1 nGRE gene) | LRRC transcript level, not repressed ([2]; IR1 nGRE gene) | MTHFR transcript level, not repressed ([2]; IR1 nGRE gene) | MXI1 transcript level, not repressed ([2]; IR1 nGRE gene) | NKRF transcript level, not repressed ([2]; IR1 nGRE gene) | SCP2 transcript level, not repressed ([2]; IR1 nGRE gene) | SOCS3 transcript level, not repressed ([2]; IR1 nGRE gene) | SREPF1 transcript level, not repressed ([2]; IR1 nGRE gene) | SSTR4 transcript level, not repressed ([2]; IR1 nGRE gene) | STAB1 transcript level, not repressed ([2]; IR1 nGRE gene) | COL4A3BP transcript level, not repressed ([2]; IR2 nGRE gene) | DPAGT1 transcript level, not repressed ([2]; IR2 nGRE gene) | ELMOD3 transcript level, not repressed ([2]; IR2 nGRE gene) | ERP27 transcript level, not repressed ([2]; IR2 nGRE gene) | FSTL1 transcript level, not repressed ([2]; IR2 nGRE gene) | GIT2 transcript level, not repressed ([2]; IR2 nGRE gene) | GLU1 transcript level, not repressed ([2]; IR2 nGRE gene) | GOT1 transcript level, not repressed ([2]; IR2 nGRE gene) | GPR68 transcript level, not repressed ([2]; IR2 nGRE gene) | GUK1 transcript level, not repressed ([2]; IR2 nGRE gene) | HSPB2 transcript level, not repressed ([2]; IR2 nGRE gene) | HSPB3 transcript level, not repressed ([2]; IR2 nGRE gene) | ITPKA transcript level, not repressed ([2]; IR2 nGRE gene) | MUC20 transcript level, not repressed ([2]; IR2 nGRE gene) | PRKRA transcript level, not repressed ([2]; IR2 nGRE gene) | SLC2A8 transcript level, not repressed ([2]; IR2 nGRE gene) | SLC25A34 transcript level, not repressed ([2]; IR2 nGRE gene) | SOCS1 transcript level, not repressed ([2]; IR2 nGRE gene) | TGM6 transcript level, not repressed ([2]; IR2 nGRE gene) | TNFRSF25 transcript level, not repressed ([2]; IR2 nGRE gene) | AIP transcript level, not repressed ([3]; IR0 nGRE gene) | CITED1 transcript level, not repressed ([3]; IR0 nGRE gene) | DLAT transcript level, not repressed ([3]; IR0 nGRE gene) | FBXL18 transcript level, not repressed ([3]; IR0 nGRE gene) | GPIHBP1 transcript level, not repressed ([3]; IR0 nGRE gene) | INHBE transcript level, not repressed ([3]; IR0 nGRE gene) | MTG1 transcript level, not repressed ([3]; IR0 nGRE gene) | NMYC transcript level, not repressed ([3]; IR0 nGRE gene) | PTMS transcript level, not repressed ([3]; IR0 nGRE gene) | TCF25 transcript level, not repressed ([3]; IR0 nGRE gene) | ZBED4 transcript level, not repressed ([3]; IR0 nGRE gene) | ZFP113 transcript level, not repressed ([3]; IR0 nGRE gene) | ZFP784 transcript level, not repressed ([3]; IR0 nGRE gene) | ADRA2A transcript level, not repressed ([3]; IR1 nGRE gene) | AGPAT2 transcript level, not repressed ([3]; IR1 nGRE gene) | BMP3 transcript level, not repressed ([3]; IR1 nGRE gene) | CADM4 transcript level, not repressed ([3]; IR1 nGRE gene) | CDH11 transcript level, not repressed ([3]; IR1 nGRE gene) | CDK9 transcript level, not repressed ([3]; IR1 nGRE gene) | CTSA transcript level, not repressed ([3]; IR1 nGRE gene) | DYNLT3 transcript level, not repressed ([3]; IR1 nGRE gene) | GPR108 transcript level, not repressed ([3]; IR1 nGRE gene) | GPR153 transcript level, not repressed ([3]; IR1 nGRE gene) | HSD11B2 transcript level, not repressed ([3]; IR1 nGRE gene) | KLC3 transcript level, not repressed ([3]; IR1 nGRE gene) | LRRC transcript level, not repressed ([3]; IR1 nGRE gene) | MT2 transcript level, not repressed ([3]; IR1 nGRE gene) | MTHFR transcript level, not repressed ([3]; IR1 nGRE gene) | MXI1 transcript level, not repressed ([3]; IR1 nGRE gene) | SCP2 transcript level, not repressed ([3]; IR1 nGRE gene) | SGK3 transcript level, not repressed ([3]; IR1 nGRE gene) | SREPF1 transcript level, not repressed ([3]; IR1 nGRE gene) | SSTR4 transcript level, not repressed ([3]; IR1 nGRE gene) | STAB1 transcript level, not repressed ([3]; IR1 nGRE gene) | CCR10 transcript level, not repressed ([3]; IR2 nGRE gene) | COL4A3BP transcript level, not repressed ([3]; IR2 nGRE gene) | DPAGT1 transcript level, not repressed ([3]; IR2 nGRE gene) | ELMOD3 transcript level, not repressed ([3]; IR2 nGRE gene) | ERP27 transcript level, not repressed ([3]; IR2 nGRE gene) | FOXJ1 transcript level, not repressed ([3]; IR2 nGRE gene) | FOXQ1 transcript level, not repressed ([3]; IR2 nGRE gene) | GGT1 transcript level, not repressed ([3]; IR2 nGRE gene) | GOT1 transcript level, not repressed ([3]; IR2 nGRE gene) | GPR97 transcript level, not repressed ([3]; IR2 nGRE gene) | GRASP transcript level, not repressed ([3]; IR2 nGRE gene) | HSPB2 transcript level, not repressed ([3]; IR2 nGRE gene) | HSPB3 transcript level, not repressed ([3]; IR2 nGRE gene) | MUC20 transcript level, not repressed ([3]; IR2 nGRE gene) | POMGNT1 transcript level, not repressed ([3]; IR2 nGRE gene) | PRKRA transcript level, not repressed ([3]; IR2 nGRE gene) | SOCS1 transcript level, not repressed ([3]; IR2 nGRE gene) | TNFRSF25 transcript level, not repressed ([3]; IR2 nGRE gene)
